Measured values: patent US6555139B2, “Preparation of micron-size pharmaceutical particles by microfluidization” (Wockhardt Europe Limited, priority 1999, dated 2003)
Read-outs that look alike come from different tables or passages of the source. Values belong to the compound of their own block, whether it stands above or below them.

Legend:
[1] = Particle size distribution (PSD) of suspensions before/after microfluidization (Mastersizer); format: physicochemical; conditions: 5,000 psi, 3 passes
Text: The Microfluidizer M-210 EH operates at higher pressures up to 35000 psi. The process stream enters the inlet reservoir. An air-powered intensifier pumping system accelerates the process stream, propelling into a processing zone called the interaction chamber. This chamber consists of microchannels, where the process stream separates into two. It changes direction and collides into a single stream again. […] Then product is accelerated to a high velocity and is subjected to shear, impact and cavitation. This causes particles and droplets to reduce in size as small as sub-micron depending upon the processing pressure and number of cycles applied. […] After completion of the microfluidization step, the sized particles in suspension pass through pipe 18 out of the system, with a heat exchanger 20 shown in a preferred system to enable on-line drying of the micro-suspension resulting from the microfluidization. The microfluidization process is most conveniently practiced with operating pressures between 2000 pounds per square inch (psi) and 20,000 psi to provide resulting particle sizes of the dimensions most appropriate for pharmaceutical dosing. The process will often progress with increasingly higher operating pressures in each subsequent pass, such as using from 2,000 to 6,000 psi in a first pass, 5,000 to 11,000 psi in a second pass, and from 9,000 to 20,000 psi in a third pass (if needed). Each pass will generally be higher than a previous pass, or operating pressures may remain constant or decrease, depending upon the specific results desired in the processing.

[2] = cited from earlier work
[3] = micronized drug + Klucel LF + micronized β-cyclodextrin + Cremophor RH-40 + water
[4] = micronized drug + Klucel LF + unmicronized β-cyclodextrin + Cremophor RH-40 + water

PSD of Output Material After Processing, d (0.9) [1, 3]: 12.15 μm | solubility (pH 1): 0.001% | solubility (pH 5): 0.01%
SMILES: CCc1cccc2c3c([nH]c12)C(CC)(CC(=O)O)OCC3 (stereo not drawn) [Etodolac, etodolac]

SMILES: CCOC(=O)C1=C(C)NC(C)=C(C(=O)OC)C1c1cccc(Cl)c1Cl (stereo not drawn) [Felodipine, felodipine]
absorption from the colon [2]: impaired absorption from the colon

PSD of Output Material After Processing, d (0.5) [1, 3]: 5.72 μm | PSD of Output Material After Processing, d (0.9) [1, 3]: 12.06 μm | PSD of Output Material After Processing, d (0.5) [1, 4]: 3.84 μm | PSD of Output Material After Processing, d (0.9) [1, 4]: 7.52 μm
SMILES: Cc1cnc(C(=O)NCCc2ccc(S(=O)(=O)NC(=O)NC3CCCCC3)cc2)cn1 [Glipizide, glipizide]

SMILES: CCOC(=O)C1=C(C)NC(C)=C(C(=O)OC)C1c1cccc([N+](=O)[O-])c1 (stereo not drawn) [nitrendipine]
absorption from the colon [2]: impaired absorption from the colon
